We go through 13 compounds from patent publication US4396770A, “1-[3-(6-Fluoro-1,2-benzisoxazol-3-yl)propyl]-4-hydroxy -4-phenylpiperidines” (Hoechst-Roussel Pharmaceuticals Inc., priority 1982, dated 1983).

Where two headings read alike, the source gives them in different places.

The subject of test [1] is apomorphine-induced climbing. The test can be described thus: climbing mice assay (antipsychotic activity). The format is in vivo, CK-1 male mice. As to conditions: Mus musculus, ip. The method, then:
The 1-[3-(6-fluoro-1,2-benzisoxazol-3-yl)propyl]-4-hydroxy-4-phenylpiperidinesof the present invention are useful for treating psychoses by virtue of their ability to block apomorphine-induced climbing in mammals.
Antipsychotic activity is determined in the climbing mice assay by a method similar to those described by P. Protais et al., Psychopharmacol., 50, 1 (1976) and B. Costall, Eur. J. Pharmacol., 50, 39 (1978).
The subject CK-1 male mice (23-27 grams) are group-housed under standard laboratory conditions. The mice are individually placed in wire mesh stick cages (4"×4"×10") and are allowed one hour for adaptation and exploration of the new environment. Then apomorphine is injected subcutaneously at 1.5 mg/kg, a dose causing climbing in all subjects for 30 minutes. Compounds to be tested for antipsychotic activity are injected intraperitoneally 30 minutes prior to the apomorphine challenge at a screening dose of 10 mg/kg.
For evaluation of climbing, 3 readings are taken at 10, 20 and 30 minutes after apomorphine administration according to the following scale:
Mice consistently climbing before the injection of apormorphine will be discarded.
With full-developed apomorphine climbing, the animals are hanging onto the cage walls, rather motionless, over longer periods of time. By contrast, climbs due to mere motor stimulation usually only last a few seconds.
The climbing scores are individually totaled (maximal score: 6 per mouse over 3 readings) and the total score of the control group (vehicle intraperitoneally--apomorphine subcutaneously) is set to 100%. ED50 values with 95% confidence limits are calculated by a Linear Regression Analysis. Antipsychotic activity expressed as the ED50 value of representative 1-[3-(6-fluoro-1,2-benzisoxazol-3-yl)propyl]-4-hydroxy-4-phenylpiperidinesas well as two standard antipsychotics are presented in Table II.

The test system of test [2] is phenyl-para-quinone induced writhes. The test can be described thus: phenyl-para-quinone writhing assay in mice (analgesia). The following applies: Mus musculus, sc, subcutaneous, estimated dose for 50% reduction in phenyl-para-quinone induced writhes, read-out: Analgesic Activity (ED50 mg/kg). The format is in vivo. An excerpt: Exptl. Biol. Med., 95, 729 (1953)]. Presented in Table 1 is the analgesic activity of representative compounds of the invention and two standards, expressed as the estimated subcutaneous dose at which the mice experience a 50% reduction in phenyl-para-quinone induced writhes, i.e., the ED50 -value.

[3] abbreviates: read-out: Antipsychotic Activity ED50 (mg/kg).

With `CCN1CCCC1CNC(=O)c1cc(S(N)(=O)=O)ccc1OC` (centres unmarked) [sulpiride, reference compound], in test [1] (mice, intraperitoneal 30 minutes prior to apomorphine 1.5 mg/kg subcutaneously, climbing scores at 10, 20 and 30 minutes, read-out: Antipsychotic Activity ED50), the ED50 amounted to 4.5 mg/kg.
In the case of `O=C(CCCN1CCC(O)(c2ccc(Cl)cc2)CC1)c1ccc(F)cc1` [haloperidol, reference compound], the ED50 in test [1] (setting [3]) was found to be 0.11 mg/kg.
Turning to `COc1ccc(C2(O)CCN(CCCc3noc4cc(F)ccc34)CC2)cc1.Cl` [Example 7, 1-[3-(6-Fluoro-1,2-benzisoxazol-3-yl)propyl]-4-hydroxy-4-(4-methoxyphenyl)piperidine hydrochloride], in test [2], the ED50 was 3.8 mg/kg.
Turning to `OC1(c2ccccc2)CCN(CCCc2noc3cc(F)ccc23)CC1` [Example 1, 1-[3-(6-Fluoro-1,2-benzisoxazol-3-yl)propyl]-4-hydroxy-4-phenylpiperidine], the ED50 in test [2] was 5.9 mg/kg; in test [1] (setting [3]), 9.6 mg/kg.
With `Cl.OC1(c2cccc(Cl)c2)CCN(CCCc2noc3cc(F)ccc23)CC1` [Example 2, 4-(3-Chlorophenyl)-1-[3-(6-fluoro-1,2-benzisoxazol-3-yl)propyl]-4-hydroxypiperidine hydrochloride], the ED50 in test [2] and in test [1] (setting [3]) was 0.8 mg/kg in each case.
With `Cl.OC1(c2cccc(C(F)(F)F)c2)CCN(CCCc2noc3cc(F)ccc23)CC1` [Example 8, 1-[3-(6-Fluoro-1,2-benzisoxazol-3-yl)propyl]-4-hydroxy-4-(3-trifluoromethylphenyl)piperidine hydrochloride], the ED50 in test [2] is 1 mg/kg; in test [1] (setting [3]), 0.25 mg/kg.
In the case of `OC1(c2ccc(Cl)cc2)CCN(CCCc2noc3cc(F)ccc23)CC1` [Example 3, 4-(4-Chlorophenyl)-1-[3-(6-fluoro-1,2-benzisoxazol-3-yl)propyl]-4-hydroxypiperidine], in test [1] (setting [3]), the ED50 was determined as 0.51 mg/kg.
Regarding `CCC(=O)O[C@](Cc1ccccc1)(c1ccccc1)[C@H](C)CN(C)C` [propoxyphene, reference compound], the ED50 in test [2] was 3.9 mg/kg.
For the compound `CC(C)=CCN1CCC2(C)c3cc(O)ccc3CC1C2C` (centres unmarked) [pentazocin, reference compound], the ED50 in test [2] was 1.3 mg/kg.
Turning to `Cc1ccccc1C1(O)CCN(CCCc2noc3cc(F)ccc23)CC1.Cl` [Example 5, 1-[3-(6-Fluoro-1,2-benzisoxazol-3-yl)propyl]-4-hydroxy-4-(2-methylphenyl)piperidine hydrochloride], the ED50 in test [1] (setting [3]) amounted to 8.3 mg/kg.
With `Cc1ccc(C2(O)CCN(CCCc3noc4cc(F)ccc34)CC2)cc1` [Example 6], in test [1] (setting [3]), the ED50 amounted to 0.56 mg/kg.
On to `OC1(c2ccc(F)cc2)CCN(CCCc2noc3cc(F)ccc23)CC1` [Example 4, 1-[3-(6-Fluoro-1,2-benzisoxazol-3-yl)propyl]-4-(4-fluorophenyl)-4-hydroxypiperidine], for which the figures for the ED50 in test [2] and in test [1] (setting [3]) were 6.2 mg/kg and 0.8 mg/kg, respectively.
For `OC1(c2ccc(C(F)(F)F)cc2)CCN(CCCc2noc3cc(F)ccc23)CC1` [Example 9, 1-[3-(6-Fluoro-1,2-benzisoxazol-3-yl)propyl]-4-hydroxy-4-(4-trifluoromethylphenyl)piperidine], in test [1] (setting [3]), the ED50 is 3.1 mg/kg.
